Results reported in US11827628B2, “Compositions and methods for inhibition of the JAK pathway” (Rigel Pharmaceuticals, Inc., priority 2005, dated 2023).
Where two headings read alike, the source gives them in different places.

Tested on: up-regulation of ICAM-1 (CD54) by IFNγ in U937 human monocytic cells
Assay: U937 IFNγ ICAM1 FACS Assay
Format: cell-based
Settings: ICAM-1 expression by FACS, read-out: IC50, Example 44
Outline: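 U937 cells in 10% FCS RPMI were preincubated 30 min at 37 °C with an 8-point, 3-fold compound dilution series in duplicate, then stimulated with IFNγ for 18–24 h. Surface ICAM-1 was stained with APC anti-ICAM-1 and read by flow cytometry as geometric mean on live-gated cells. EC50 was derived.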

[1] = Homo sapiens, U-937, U937 cells stimulated with IFNγ

SMILES | IC50 [1] [nM] | IC50 (U937 cells stimulated with IFNγ) [nM]
Cc1ccc(Nc2ncc(F)c(Nc3ccc(OCC(N)=O)c(F)c3)n2)cc1S(N)(=O)=O [Compound I-102, N4-(4-Aminocarbonylmethoxy-3-fluorophenyl)-N2-(3-aminosulfonyl-4-methylphenyl)-5-fluoro-2,4-pyrimidinediamine] | 15600 | 
Cc1cnc(Nc2ccc(S(N)(=O)=O)cc2)nc1Nc1ccc(OCC(N)=O)cc1 [Compound I-108, N4-(4-Aminocarbonylmethoxyphenyl)-N2-(4-aminosulfonylphenyl)-5-methyl-2,4-pyrimidinediamine] | 3970 | 
Cc1cnc(Nc2cccc(S(N)(=O)=O)c2)nc1Nc1ccc(OCC(N)=O)cc1 [Compound I-109, N4-(4-Aminocarbonylmethoxyphenyl)-N2-(3-aminosulfonylphenyl)-5-methyl-2,4-pyrimidinediamine] | 9940 | 
Cc1ccc(Nc2ncc(C)c(Nc3ccc(OCC(N)=O)cc3)n2)cc1S(N)(=O)=O [Compound I-110, N4-(4-Aminocarbonylmethoxyphenyl)-N2-(3-aminosulfonyl-4-methylphenyl)-5-methyl-2,4-pyrimidinediamine] | 3930 | 
CN(C)C(=O)COc1ccc(Nc2nc(Nc3ccc(S(N)(=O)=O)cc3)ncc2F)cc1Cl [Compound I-131, N2-(4-Aminosulfonylphenyl)-N4-(3-chloro-4-dimethylaminocarbonylmethoxyphenyl)-5-fluoro-2,4-pyrimidinediamine] | 2990 | 
CN(C)C(=O)COc1ccc(Nc2nc(Nc3cccc(S(N)(=O)=O)c3)ncc2F)cc1Cl [Compound I-132, N2-(3-Aminosulfonylphenyl)-N4-(3-chloro-4-dimethylaminocarbonylmethoxyphenyl)-5-fluoro-2,4-pyrimidinediamine] | 2720 | 
Cc1cnc(Nc2ccc(S(N)(=O)=O)cc2)nc1Nc1ccc(OCC(=O)N(C)C)c(Cl)c1 [Compound I-134, N2-(4-Aminosulfonylphenyl)-N4-(3-chloro-4-dimethylaminocarbonylmethoxyphenyl)-5-methyl-2,4-pyrimidinediamine] | 3240 | 
Cc1cnc(Nc2cccc(S(N)(=O)=O)c2)nc1Nc1ccc(OCC(=O)N(C)C)c(Cl)c1 [Compound I-135, N2-(3-Aminosulfonylphenyl)-N4-(3-chloro-4-dimethylaminocarbonylmethoxyphenyl)-5-methyl-2,4-pyrimidinediamine] | 1830 | 
Cc1ccc(Nc2ncc(C)c(Nc3ccc(OCC(=O)N(C)C)c(Cl)c3)n2)cc1S(N)(=O)=O [Compound I-136, N2-(3-Aminosulfonyl-4-methylphenyl)-N4-(3-chloro-4-dimethylaminocarbonylmethoxyphenyl)-5-methyl-2,4-pyrimidinediamine] | 1640 | 
Cc1cnc(Nc2ccc(S(N)(=O)=O)cc2)nc1Nc1ccc(OCC(=O)N(C)C)c(F)c1 [Compound I-137, N2-(4-Aminosulfonylphenyl)-N4-(4-dimethylaminocarbonylmethoxy-3-fluorophenyl)-5-methyl-2,4-pyrimidinediamine] | 29600 | 
Cc1cnc(Nc2cccc(S(N)(=O)=O)c2)nc1Nc1ccc(OCC(=O)N(C)C)c(F)c1 [Compound I-138, N2-(3-Aminosulfonylphenyl)-N4-(4-dimethylaminocarbonylmethoxy-3-fluorophenyl)-5-methyl-2,4-pyrimidinediamine] | 9470 | 
Cc1ccc(Nc2ncc(C)c(Nc3ccc(OCC(=O)N(C)C)c(F)c3)n2)cc1S(N)(=O)=O [Compound I-139, N2-(3-Aminosulfonyl-4-methylphenyl)-N4-(4-dimethylaminocarbonylmethoxy-3-fluorophenyl)-5-methyl-2,4-pyrimidinediamine] | 3260 | 
CNC(=O)COc1ccc(Nc2nc(Nc3ccc(S(N)(=O)=O)cc3)ncc2C)cc1Cl [Compound I-149, N2-(4-Aminosulfonylphenyl)-N4-(3-chloro-4-methylaminocarbonylmethoxyphenyl)-5-methyl-2,4-pyrimidinediamine] | 14700 | 
CNC(=O)COc1ccc(Nc2nc(Nc3cccc(S(N)(=O)=O)c3)ncc2C)cc1Cl [Compound I-150, N2-(3-Aminosulfonylphenyl)-N4-(3-chloro-4-methylaminocarbonylmethoxyphenyl)-5-methyl-2,4-pyrimidinediamine] | 10500 | 
CNC(=O)COc1ccc(Nc2nc(Nc3cccc(S(N)(=O)=O)c3)ncc2C)cc1F [Compound I-155, N2-(3-Aminosulfonylphenyl)-N4-(3-fluoro-4-methylaminocarbonylmethoxyphenyl)-5-methyl-2,4-pyrimidinediamine] | 65100 | 
CNC(=O)COc1ccc(Nc2nc(Nc3ccc(C)c(S(N)(=O)=O)c3)ncc2C)cc1F [Compound I-156, N2-(3-Aminosulfonyl-4-methylphenyl)-N4-(3-fluoro-4-methylaminocarbonylmethoxyphenyl)-5-methyl-2,4-pyrimidinediamine] | 2620 | 
C=CCNC(=O)COc1ccc(Nc2nc(Nc3cccc(S(N)(=O)=O)c3)ncc2F)cc1 [Compound I-158, N4-(4-Allylaminocarbonylmethoxyphenyl)-N2-(3-aminosulfonylphenyl)-5-fluoro-2,4-pyrimidinediamine] | 1380 | 

SMILES | IC50 [1] [nM] | IC50 (U937 cells stimulated with IFNγ) [nM]
C=CCNC(=O)COc1ccc(Nc2nc(Nc3ccc(C)c(S(N)(=O)=O)c3)ncc2F)cc1 [Compound I-159, N4-(4-Allylaminocarbonylmethoxyphenyl)-N2-(3-aminosulfonyl-4-methylphenyl)-5-fluoro-2,4-pyrimidinediamine] | 1630 | 
Cc1ccc(Nc2ncc(F)c(Nc3ccc(OCc4cccnc4)cc3)n2)cc1S(N)(=O)=O [Compound I-178, N2-(3-Aminosulfonyl-4-methylphenyl)-5-fluoro-N4-[4-(3-pyridylmethoxy)phenyl]-2,4-pyrimidinediamine] | 118 | 
Cc1ccc(Nc2nc(Nc3cccc(S(N)(=O)=O)c3)ncc2F)cc1OCCN1CCOCC1 [Compound I-203, N2-(3-Aminosulfonylphenyl)-5-fluoro-N4-[4-methyl-3-(2-morpholinoethyloxy)phenyl]-2,4-pyrimidinediamine] | 3130 | 
Cc1ccc(Nc2nc(Nc3ccc(C)c(S(N)(=O)=O)c3)ncc2F)cc1OCCN1CCOCC1 [Compound I-204, N2-(3-Aminosulfonyl-4-methylphenyl)-5-fluoro-N4-[4-methyl-3-(2-morpholinoethyloxy)phenyl]2,4-pyrimidinediamine] | 3930 | 
Cc1cc(COc2ccc(Nc3nc(Nc4cccc(S(N)(=O)=O)c4)ncc3F)cc2)no1 [Compound I-230, N2-(3-Aminosulfonylphenyl)-5-fluoro-N4-[4-(5-methylisoxazol-3-yl)methyleneoxyphenyl]-2,4-pyrimidinediamine] | 465 | 
Cc1cc(COc2ccc(Nc3nc(Nc4cccc(S(=O)(=O)NCc5oc(=O)oc5C)c4)ncc3F)cc2)no1 [Compound I-247, N2-{3-[(N-5-Methyl-1,3-dioxolene-2-one-4-yl)methylene]aminosulfonylphenyl}-5-fluoro-N4-[4-(5-methylisoxazol-3-yl)methyleneoxyphenyl]-2,4-pyrimidinediamine] | 1080 | 
Cc1nnc(COc2ccc(Nc3nc(Nc4ccc(C)c(S(N)(=O)=O)c4)ncc3F)cc2)o1 [Compound I-279, N2-(3-Aminosulfonyl-4-methylphenyl)-5-fluoro-N4-[4-(5-methyl-1,3,4-oxadiazol-2-yl)methoxyphenyl]-2,4-pyrimidinediamine] | 918 | 
Cc1ccc(Nc2ncc(F)c(Nc3cnc4c(c3)OC(C)(C)C(=O)N4CC#N)n2)cc1S(N)(=O)=O [Compound V-14, N2-(3-Aminosulfonyl-4-methylphenyl)-N4-[2,2-dimethyl-3-oxo-4-cyanomethyl-5-pyrid[1,4]oxazin-7-yl]-5-fluoro-2,4-pyrimidinediamine] |  | 6850
Cc1cc2ccc(CNc3nc(Nc4cccc(S(N)(=O)=O)c4)ncc3F)cc2[nH]1 [Compound X-3] | 1380 | 
Cc1ccc(Nc2ncc(F)c(Nc3cccc(OC4CCN(C)CC4)c3)n2)cc1S(N)(=O)=O [II-2, N2-(3-Aminosulfonyl-4-methylphenyl)-5-fluoro-N4-{3-[(1-methylpiperidin-4-yl)oxy]phenyl}-2,4-pyrimidinediamine] | 4590 | 
Cc1ccc(Nc2ncc(F)c(Nc3ccc(OC4CCN(C)CC4)c(C(F)(F)F)c3)n2)cc1S(N)(=O)=O [II-6, N2-(3-Aminosulfonyl-4-methylphenyl)-5-fluoro-N4-{4-[(1-methylpiperidin-4-yl)oxy]-3-trifluoromethylphenyl}-2,4-pyrimidinediamine] | 6390 | 
Cc1ccc(Nc2ncc(F)c(Nc3ccc(OC4CCN(C)CC4)cc3)n2)cc1S(N)(=O)=O [II-7, N2-(3-Aminosulfonyl-4-methylphenyl)-5-fluoro-N4-{4-[(1-methylpiperidin-4-yl)oxy]phenyl}-2,4-pyrimidinediamine] | 1630 | 
NS(=O)(=O)c1cccc(Nc2ncc(F)c(Nc3ccc(Oc4cccnc4)cc3)n2)c1 [II-11, N2-(3-Aminosulfonylphenyl)-5-fluoro-N4-[4-(3-pyridyloxy)phenyl]-2,4-pyrimidinediamine] | 912 | 
Cc1ccc(Nc2ncc(F)c(Nc3ccc(Oc4cccnc4)cc3)n2)cc1S(N)(=O)=O [II-12, N2-(3-Aminosulfonyl-4-methylphenyl)-5-fluoro-N4-[4-(3-pyridyloxy)phenyl]-2,4-pyrimidinediamine] | 1190 | 
Cc1cnc(Nc2ccc(Cl)c(S(N)(=O)=O)c2)nc1Nc1ccc(CCC#N)cc1 [III-12, N2-(3-Aminosulfonyl-4-chlorophenyl)-N4-[4-(2-cyanoethyl)phenyl]-5-methyl-2,4-pyrimidinediamine] | 321 | 
Cc1ccc(Nc2ncc(F)c(Nc3ccc(CCC#N)c(F)c3)n2)cc1S(N)(=O)=O [III-17, N2-(3-Aminosulfonyl-4-methylphenyl)-5-fluoro-N4-[4-(2-cyanoethyl)-3-fluorophenyl]-2,4-pyrimidinediamine] | 782 | 
